Reference: patent US8324188B2, “Combinations of ET-18-O-CH3and anti-cancer agents for the treatment of cancer” (priority 2006, dated 2012)

How the values were obtained:
A172 = assay: WST-1 proliferation assay, A172; assay type: cell-based, human
Procedure: AP-121 was prepared as 5 mM stock solution in distilled sterile water, Temozolomide (TMZ) (Haorui Pharma-Chem, Inc., Edison, N.J.) was prepared as 100 mM in sterile filtrated DMSO; Adriamycin (ADR) (Sigma) was prepared as 1 mM in distilled sterile water; Camptothecin (CTP) (Sigma) was prepared as 10 mM solution in 0.1 N NaOH; Tarceva (Proteinkinase, Germany) was prepared as 5 mM solution in sterile DMSO. All compound stocks were kept at −20° C. 2000 cells were plated in each well of 96-well flat bottom plates, and incubated overnight at 37 °C in 5% CO2. The growth of plated cells was measured by adding […] of WST-1 reagent (Roche Applied Sciences, Germany) to 3 control wells and measuring the absorbance at 650 nm and at 450 nm, respectively, with a SpectraMax250 plate reader. […] After this incubation, VVST-1 reagent was added to the wells and OD650-OD450 values were calculated as before. six wells were assayed for each conditions and standard deviation was determined: all experiments were performed at least three times independently. […] Six different concentrations of each drug were used in combinations index measurements and compared to +/− cells, and compared to controls without compound.

HMEC1 endothelial cells = conditions: cited from earlier work
[1] = tested on: LNCaP androgen-sensitive human prostate adenocarcinoma cells; assay: Apo-ONE Homogenous Caspase-3/7 Assay in LNCaP cells; assay type: cell-based
Procedure: FIG. 1. Depicts the in vitro effects of 1-O-octadecyl-2-O-methyl-glycero-3-phosphocholine (final concentration 10 μM), (ionizing) radiation (absorbed dose of 5 Gray units; indicated as “RT”), and a combination thereof on programmed cell death (apoptosis) and the survival rate of LNCaP androgen-sensitive human prostate adenocarcinoma cells. Apoptosis was determined using the Apo-ONE™ Homogenous Caspase-317 Assay, Promega, Inc., Madison, Wis., USA according to the manufacturers instructions. The percentage of living cancer cells was estimated by means of trypan blue dye exclusion as described (Freshney, R. I. (1994) Culture of Animal Cells: A Manual of Basic Technique. 3rd Ed. Wiley-Liss. New York. USA). The cells were exposed to radiation six hours after (FIG. 1A), concomitantly with (FIG. 1B), or six hours before administration of 1-O-octadecyl-2-O-methyl-glycero-3-phospho-choline (FIG. 1C). The caspase assay was performed 12 hours after exposure to radiation. The respective data shown represent the average of two independent experiments.
First, the in vitro effects of 1-O-octadecyl-2-O-methyl-glycero-3-phosphocholine, (ionizing) radiation, and a combination thereof on programmed cell death (apoptosis) and the survival rate of LNCaP androgen-sensitive human prostate adenocarcinoma cells were measured. The LNCaP cell line was established from a metastatic lesion of the adenocarcinoma. The cells were treated with a final concentration of 10 μM 1-O-octadecyl-2-O-methyl-glycero-3-phosphocholine and (ionizing) radiation corresponding to an absorbed dose of 5 Gray units.
Apoptosis was determined using the Apo-ONE™ Homogenous Caspase-3/7 Assay, Promega, Inc., Madison, VV1, USA according to the manufacturers instructions. The percentage of living tumor cells was estimated by means of trypan blue dye exclusion as described (Freshney, R. I. (1994) Culture of Animal Cells: A Manual of Basic Technique. 3rd Ed. Wiley-Liss. New York. USA)
The cells were exposed to radiation six hours after (FIG. 1A), concomitantly with (FIG. 1B), or six hours before administration of 1-O-octadecyl-2-O-methyl-glycero-3-phospho-choline (FIG. 1C). The caspase assay was performed 12 hours after exposure to radiation. The respective data shown represent the average of two independent experiments.
In a further approach, 10 μM 1-O-octadecyl-2-O-methyl-glycero-3-phosphocholine (final concentration; “CHEM”) and (ionizing) radiation (5 Gray units; “RT”) were administered simultaneously to the LNCaP cells but the subsequent incubation period was extended to 24 hours. Apoptosis was measured using the Apo-ONE™ Homogenous Caspase-3/7 Assay as described above and expressed as relative fluorescence units (RFLU). The percentage of apoptotic cells was determined by flow cytometric analysis of annexin V-PE positive-stained and 7-AAD (7-Amino ActinomycinD) negative-stained cells (both purchased from BD Biosciences, San Jose, Calif., USA) according to established standard protocols. The data represent means±SEM from three independent experiments.
Apoptosis was measured using the Apo-ONE™ Homogenous Caspase-3/7 Assay as described above and expressed as relative fluorescence units (RFLU). The percentage of apoptotic cells was determined via annexin V-PE/7-AAD staining as described above. The caspase-317 assay and annexin staining were performed 22 hours after CHEM treatment.

CCCCCCCCCCCCCCCCCCOCC(COP(=O)([O-])OCC[N+](C)(C)C)OC (racemic) [AP-121, 1-O-octadecyl-2-O-methyl-glycero-3-phosphocholine]
IC50 (A172; Homo sapiens, A 172): 4.6 µM | EC50 (A172; Homo sapiens, A 172, single agent or compound mixture as labelled (arrays A2, A1), read-out: ED50 (the source's name)): 4.2 µM | normalized ED50 (arrays B2, B1) (A172; ratio to the largest value): 0.62 | anti-angiogenic activity (HMEC1 endothelial cells): 60 nM | increase in apoptotic response (caspase-3/7 assay) ([1]; 10 μM administered six hours prior to radiation (5 Gray), combined treatment (FIG. 1A)): > 2.5 fold | extent of apoptosis, increase in cells only exposed to the chemical as compared to the combined treatment ([1]; 10 μM, radiation six hours before (FIG. 1C)): about 25% | Caspase-3/7 activity (RFLU) ([1]; AD (androgen deprivation, two days) + 5 μM CHEM, AD alone 81): 126 RFLU | Caspase-3/7 activity (RFLU) ([1]; AD + 10 μM CHEM): 115 RFLU | Caspase-3/7 activity (RFLU) ([1]; AD + R1881 (two days prior) + 5 μM CHEM): 453 RFLU | Caspase-3/7 activity (RFLU) ([1]; AD + R1881 (two days prior) + 10 μM CHEM): 962 RFLU | Caspase-3/7 activity (RFLU) ([1]; CHEM 10 μM + RT 5 Gray simultaneously, 24 hours, means±SEM, p < 0.0001 vs CHEM and RT): 1514 ± 102 RFLU | Caspase-3/7 activity (RFLU) ([1]; CHEM 10 μM alone, 24 hours, means±SEM, three experiments, Control 193 ± 39): 580 ± 207 RFLU | Caspase-3/7 activity (RFLU) ([1]; Contr. + 5 μM CHEM, 22 hours after CHEM, Contr. 235): 380 RFLU | Caspase-3/7 activity (RFLU) ([1]; Contr. + 10 μM CHEM, 22 hours after CHEM): 436 RFLU
